According to patent US5633437A, “Gene exhibiting resistance to acetolactate synthase inhibitor herbicides” (Sandoz Ltd., priority 1994, dated 1997):
Where a name gives a salt, the structure may show the parent alone.

T1: acetolactate synthase (ALS), resistant enzyme from R-XANST (Xanthium sp., UniProt Q41716)
T1 construct: mature chloroplast form
T1 sequence (Q41716 78-648): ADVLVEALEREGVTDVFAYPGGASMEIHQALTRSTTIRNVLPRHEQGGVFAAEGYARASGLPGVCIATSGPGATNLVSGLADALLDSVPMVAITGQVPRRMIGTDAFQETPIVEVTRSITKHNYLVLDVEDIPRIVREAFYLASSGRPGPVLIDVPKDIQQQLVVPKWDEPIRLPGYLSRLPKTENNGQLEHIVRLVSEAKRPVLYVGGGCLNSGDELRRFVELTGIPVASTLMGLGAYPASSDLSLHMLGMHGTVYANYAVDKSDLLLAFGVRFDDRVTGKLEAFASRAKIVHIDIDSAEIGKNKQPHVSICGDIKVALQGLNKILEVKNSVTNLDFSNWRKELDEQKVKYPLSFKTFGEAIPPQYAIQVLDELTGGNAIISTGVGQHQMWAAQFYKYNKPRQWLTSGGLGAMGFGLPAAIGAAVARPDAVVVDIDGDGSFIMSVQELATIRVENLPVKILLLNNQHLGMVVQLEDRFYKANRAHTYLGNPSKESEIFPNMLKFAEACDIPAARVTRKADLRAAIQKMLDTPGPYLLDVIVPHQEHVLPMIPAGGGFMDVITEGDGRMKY

T2: acetolactate synthase (ALS), sensitive enzyme from S-XANST (Xanthium sp., UniProt Q41717)
T2 construct: mature chloroplast form
T2 sequence (Q41717 78-648): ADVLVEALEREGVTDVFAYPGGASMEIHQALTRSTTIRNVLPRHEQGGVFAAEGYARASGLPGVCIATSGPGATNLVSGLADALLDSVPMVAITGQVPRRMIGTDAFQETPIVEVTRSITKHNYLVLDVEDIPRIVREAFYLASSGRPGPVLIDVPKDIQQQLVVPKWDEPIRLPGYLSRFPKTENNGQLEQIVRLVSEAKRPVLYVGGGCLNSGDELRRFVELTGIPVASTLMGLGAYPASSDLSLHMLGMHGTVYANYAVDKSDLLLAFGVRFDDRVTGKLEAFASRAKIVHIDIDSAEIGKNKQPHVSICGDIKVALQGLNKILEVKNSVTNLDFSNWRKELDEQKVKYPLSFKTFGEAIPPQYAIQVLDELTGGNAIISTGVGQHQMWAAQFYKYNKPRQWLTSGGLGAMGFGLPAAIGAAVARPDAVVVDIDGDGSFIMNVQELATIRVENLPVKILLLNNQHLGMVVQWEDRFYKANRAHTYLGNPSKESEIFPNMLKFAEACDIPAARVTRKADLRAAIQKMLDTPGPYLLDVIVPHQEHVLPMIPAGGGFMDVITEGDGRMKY


Experiments:
[1] = test system: R-XANST (resistant cocklebur biotype); assay: Herbicidal evaluation, post-emergence spray on resistant cocklebur; assay type: in vivo, cocklebur (Xanthium sp.)
Procedure: (§1) Seeds of S-XANST and R-XANST are planted one per pot in soil mix. Pots are placed on a heating mat and the soil temperature increased from about 65° F. to about 90° F. At the 2-3 leaf stage, plants are treated with test herbicides using a linear track laboratory sprayer calibrated to deliver 42.5 GPA. Plants are watered by subirrigation after herbicide application. Observations of percent control are made 21 days after herbicide application. The test ALS inhibitor herbicides are listed below including their chemical class:
(§2) The effect of the various ALS inhibitors against R-XANST and S-XANST is depicted in FIG. 5. The results are reported as % control wherein 100% injury is equal to complete control as determined by growth. All treatments are replicated four times in a randomized complete block design.
(§3) Additionally tests are preformed at much higher herbicide rates to determine the extent of resistance. […] Glean tested at 1.56 lb ai/A, a rate of 100 times field use, provided 88% injury to R-XANST. Pursuit provides 90% injury to R-XANST when used at 100 times the normal field rate, (6.25 lb ai/A).

[2] = molecular target: T1, acetolactate synthase (ALS), resistant enzyme from R-XANST; assay: ALS enzymatic evaluation, resistant enzyme isolated from R-XANST; assay type: biochemical; conditions: ALS from R-XANST leaves, 40% ammonium sulfate fraction; read-out: I50 (M) Resistant
Procedure: (§4) Cocklebur is grown in a greenhouse. Five grams of fresh green leaf tissue are ground to a powder in a mortar at the temperature of liquid nitrogen. The powder is extracted with 100 ml of buffer containing 50 mM N-[2-hydroxyethyl]piperazine-N'-[3-propanesulfonic acid], (EPPS); pH 7.2; 5 mM MgCl2; 2 mM EDTA; 1 mM valine; 1 mM leucine; 10% glycerol; 10 mM pyruvate; 5 mM Dithiothreitol; 1% polyvinyl polypyrrolidone (PVPP) and […] flavin adenine dinucleotide and filtered through cheesecloth. The filtrate was centrifuged at 15,000×g for 15 min.
(§5) The procedures used for the isolation of ALS from cocklebur are similar to those known in the art. The supernatant resulting from centrifugation of the crude extract is brought to 40% ammonium sulfate. The ammonium sulfate pellet is not frozen and is resuspended in standard buffer used for I50 determinations and then gel-filtered through the same buffer. This preparation is used for determinations of Km for pyruvate and I50. The Km is equal to the substrate concentration at which the initial reaction velocity is half maximal and also referred to as the Michaelis-Menten constant. The Km is determined using Lineweaver-Burke double reciporcial plots. I50 is the concentration in which 50% inhibition is observed and is determined from linear regression analysis of the linear portion of the dose/response curve.
(§6) The I50 values by various ALS inhibitors are determined on both sensitive enzymes isolated from S-XANST and resistant enzymes isolated from R-XANST and are reported in Table 1.

[3] = test system: acetolactate synthase (ALS), resistant enzyme from R-XANST; assay: as above; assay type: biochemical; conditions: ratio I50 resistant / I50 sensitive enzyme
Procedure: as §4, §5, §6

[4] = test system: S-XANST (susceptible cocklebur); assay: Herbicidal evaluation, post-emergence spray on susceptible cocklebur; assay type: in vivo, cocklebur (Xanthium sp.)
Procedure: as §1, §2, §3

[5] = molecular target: T2, acetolactate synthase (ALS), sensitive enzyme from S-XANST; assay: ALS enzymatic evaluation, sensitive enzyme isolated from S-XANST; assay type: biochemical, cocklebur (Xanthium sp.); conditions: ALS from S-XANST leaves, 40% ammonium sulfate fraction; read-out: I50 (M) Sensitive
Procedure: as §4
as §5, with “I50 is the concentration in which 50% inhibition is observed and is determined from linear regression analysis of the linear portion of the dose/response curve.” left out
as §6

[6] = substrate: CC(=O)C(=O)O; assay: ALS enzymatic evaluation, resistant enzyme isolated from R-XANST; assay type: biochemical; conditions: other: R-XANST enzyme; Lineweaver-Burke plots; pH 7.2
Procedure: as §4
as §5, with “I50 is the concentration in which 50% inhibition is observed and is determined from linear regression analysis of the linear portion of the dose/response curve.” left out
as §6

Molecule | IC50 [2] | Fold-resistance (R/S) [3] | also measured
CCc1cnc(C2=NC(C)(C(C)C)C(=O)N2)c(C(=O)O)c1 (single isomer, unassigned; (+)) [Imazethapyr, (+)-2-[4,5-dihydro-4-methyl-4-(1-methylethyl)-5-oxo-1H-imidazole-2-yl]-5-ethyl-3-pyridinecarboxylic acid] | 0.0001 M | 100 | injury to R-XANST ([1]; 100 times the normal field rate, 6.25 lb ai/A): 90%
Cc1ccn2nc(S(=O)(=O)Nc3c(F)cccc3F)nc2n1 [Broadstrike] | 0.0006 M | 10,000 | injury to S-XANST ([4]; 0.01 lb ai/A): greater than 95%; injury on R-XANST ([1]; 6 lb ai/A): 25%
COc1nc(C)nc(NC(=O)NS(=O)(=O)c2ccccc2Cl)n1 [Chlorsulfurson, 2-chloro-N-[[CH-methoxy-6-methyl-1,3,5-triazin-2-yl-amino]carbonyl]benzenesulfonamide] | 5e-05 M | 6,250 | injury to R-XANST ([1]; 1.56 lb ai/A, 100 times field use): 88%
COc1cc(OC)nc(C(=O)c2c(Cl)ccc(Cl)c2C(=O)O)n1 [Di-Cl benzoate] | 0.0006 M | 2,200 | 
CC(C)C1(C)N=C(c2nc3ccccc3cc2C(=O)O)NC1=O (stereo not drawn) [Imazaquin, 2-[4,5-dihydro-4-methyl-4-(1-methylethyl)-5-oxo-1H-imidazole-2-yl]-3-quinolinecarboxylic acid] | 0.0001 M | 250 | 
CC(C)C[C@H](N)C(=O)O [Leucine] | 0.001 M | 1 | 
COc1cc(OC)nc(C(=O)c2c(Cl)ccc(Cl)c2C(=O)O)n1 [SAN 2, 3-6-Dichloro-2-[(4,6-dimethoxy-2-pyrimidinyl)carbonyl]benzoic acid, isopropyl ammonium salt] |  |  | injury to S-XANST ([4]; 0.1 lb ai/A, 2-3 leaf stage, 21 days after application): greater than 95%; injury to R-XANST ([1]; 30 lb ai/A, 21 days after application): ≤ 50%
COc1cc(OC)nc(Sc2cccc(Cl)c2C(=O)O)n1 [Staple] |  |  | injury to S-XANST ([4]; 0.03 lb ai/A, 21 days after application): greater than 90%; injury to R-XANST ([1]; highest test rate, 9.0 lb ai/A): ≤ 55%
Picolinate | 0.001 M | 1,100 | IC50 [5]: 9e-08 M
acetolactate synthase (ALS), resistant enzyme from R-XANST (Xanthium sp.) (protein, mature chloroplast form) ADVLVEALEREGVTDVFAYPGGASMEIHQALTRSTTIRNVLPRHEQGGVFAAEGYARASGLPGVCIATSGPGATNLVSGLADALLDSVPMVAITGQVPRRMIGTDAFQETPIVEVTRSITKHNYLVLDVEDIPRIVREAFYLASSGRPGPVLIDVPKDIQQQLVVPKWDEPIRLPGYLSRLPKTENNGQLEHIVRLVSEAKRPVLYVGGGCLNSGDELRRFVELTGIPVASTLMGLGAYPASSDLSLHMLGMHGTVYANYAVDKSDLLLAFGVRFDDRVTGKLEAFASRAKIVHIDIDSAEIGKNKQPHVSICGDIKVALQGLNKILEVKNSVTNLDFSNWRKELDEQKVKYPLSFKTFGEAIPPQYAIQVLDELTGGNAIISTGVGQHQMWAAQFYKYNKPRQWLTSGGLGAMGFGLPAAIGAAVARPDAVVVDIDGDGSFIMSVQELATIRVENLPVKILLLNNQHLGMVVQLEDRFYKANRAHTYLGNPSKESEIFPNMLKFAEACDIPAARVTRKADLRAAIQKMLDTPGPYLLDVIVPHQEHVLPMIPAGGGFMDVITEGDGRMKY |  |  | Km [6]: 6 mM
